Data taken from US20030236399A1, “Method of improving the quality of taste of natural sweetner” (Shangdong Hua Xian Stevia Co., Ltd., priority 2002, published 2003).

Columns and labels:
[1] = Dissolving under ambient temperature, before and after the process; type: physicochemical
Description: Comparisons have been made between the natural sweetener before and after the process of the present invention and the results are illustrated as follow: […]

[2] = background statement; cited from earlier work
[3] = high temperature, high acidity and high alkalinity; cited from earlier work

| Compound | Solubility under ambient temperature ([1]; Sweetness equivalent to 5% sucrose solution) | Solubility under ambient temperature ([1]; Sweetness equivalent to 10% sucrose solution) | Sweetness level relative to sucrose [2] | Stability of structure [3] | Solubility under ambient temperature ([1]; Sweetness equivalent to 15% sucrose solution) |
| --- | --- | --- | --- | --- | --- |
| C=C1C[C@@]23CC[C@H]4[C@@](C)(CCC[C@@]4(C)C(=O)O[C@@H]4O[C@H](CO)[C@@H](O)[C@H](O)[C@H]4O)[C@@H]2CC[C@]1(O[C@@H]1O[C@H](CO)[C@@H](O)[C@H](O)[C@H]1O[C@@H]1O[C@H](CO)[C@@H](O)[C@H](O)[C@H]1O)C3 [stevioside] | insoluble under ambient | insoluble under ambient | 200-300 times higher than that of sucrose | stable in structure |  |
| α-glycosyl stevioside |  |  |  |  | taste, easy to dissolve under |
